Experiment [1] deals with RIF-1 murine fibrosarcoma. Put plainly: RIF-1 tumor growth delay, thiocolchicine alone and with cisplatin, camptothecin or amonafide (Example 6). It is filed as in vivo, C3H mice. Conditions: Ex# E047. As for the experimental part:
Cisplatin for Injection, USP, was obtained as the commercial product from Bristol Laboratories (Platinol®, Lot No. K1F26A). Camptothecin was obtained from Boehinger-Ingelheim Lot 142088. Amonafide dihydrochloride was prepared in house, in a solution of 20 mg/ml. 0.9% Sodium Chloride for Injection, USP (saline) was manufactured by Abbott Laboratories (Lot No. 55-199-DK). Sterile Water for Injection, USP (WFI) was manufactured by Lyphomed, Inc. (Lot No. 390849). DMSO was obtained from Sigma (St. Louis, Mo.). DMF (dimethylformamide) was obtained from Sigma (St. Louis, Mo.). PEG400 was obtained from Sigma (St. Louis, Mo.).
For preparation of cisplatin formulation, the contents of a 10-mg vial of lyophilized CDDP (Cisplatin for Injection) was resuspended with 10 mL WFI to produce a 1 mg/mL CDDP suspension.
Camptothecin was prepared in a solution of DMSO at 0.75 mg/ml.
This was further diluted using saline to […].
Amonafide was diluted to 15 mg/ml with saline.
Food and water were available ad libitum.
Tumors: The RIF-1 murine fibrosarcoma cell line was maintained in in vitro culture (Wayrnouth medium supplemented with 20% fetal bovine serum) at 37° C. in a humidified 5% CO2 incubator. Log-phase RIF-1 cells were trypsinized and harvested from cell culture flasks to yield a concentration of 4×10^6 cells/mL, then injected intradermally in a volume of 50 μL (equivalent to 2×10^5 cells per injection) into both flanks of each mouse. Nine days later, when tumors reached approximately 100 mm^3 in size, the animals were randomized to different treatment groups.
Evaluation of Tumor Growth Delay: Tumors were measured three times weekly for up to 22 days with Vernier calipers. Tumor volume (cubic millimeters, mm^3) was calculated according to the formula: [formula] in which D1-3 are perpendicular diameters measured in millimeters (mm). Tumor volume quadrupling time (TVQT), defined as the time required for a tumor to grow to four times (4×) its initial volume (at the time of treatment), was used as a study endpoint.
The TVQT was determined for each treatment group and expressed in days as the mean±standard error (SE).

The subject of experiment [2] is murine fibrosarcomas (RIF-1 cells). Put plainly: RIF-1 tumor growth delay, single-dose colchicine with camptothecin (Example 2A). The experiment is classed as in vivo, C3H mice. As for the experimental part:
(§1) For the examples below, transplantable experimental murine fibrosarcomas (2×10^5 RIF-1 cells) were grown intradermally in the flank s of 3 month old female C3H mice (Charles River, Holister, Calif.). When the tumors reached a volume of approximately 100 mm^3, the mice were randomly assigned to each experimental group (4 mice per group).
(§2) Colchicine was obtained from Sigma-Aldrich (St. Louis, Mo.) and was made to the appropriate concentration in water for injection. After the treatments described below, the growth of the tumors was monitored three times per week by caliper measurements of three perpendicular diameters of the tumor. The tumor volume was calculated from the formula: V=π/6×D1×D2×D3, where D1-3 are the diameter measurements in mm.
(§3) In each Example, the tumors were followed until they reached a size of four times their day zero treatment volume (TVQT), or up to 30 days after treatment, whichever came first. The data is expressed as the “tumor volume quadrupling time” (TVQT) mean and as the “delay.” Mean TVQT is the mean days required for individual tumors to grow to four times the tumor volume at the initial treatment day. The “delay” is the median of days required for a tumor to grow to four times the mean size of the treated group, minus the median of days required to grow to four times the mean size of the control group. The data is also expressed as the ratio of the tumor volume quadrupling time of the treated tumor over the untreated control group (TVQT/CTVQT). Increasing values of this ratio indicate increased antitumor response.
A. Effect of Single Doses of Colchicine Administered Concurrently with Camptothecin Camptothecin (Boehringer Ingelheim-Lot 71012) was made to the appropriate concentration in DMSO. Colchicine was given orally in a volume of 100 μl. Camptothecin was injected systemically (i.e., intraperitoneally, i.p.), in a volume of 100 μl. For the treatment of group 3, colchicine was given orally immediately prior to the intraperitoneal injection of camptothecin. The experimental compositions were prepared as described in Table 4.

Experiment [3] shares this test system. Put plainly: RIF-1 tumor growth delay, single or multiple colchicine doses in mixed sequence with camptothecin (Example 2B). The experiment is classed as in vivo, C3H mice. The method, then: as §1, §2, §3
In FIG. 5, the arrow indicates a one hour interval separating treatment with each agent. The experimental compositions were prepared as described above. In two treatment groups, colchicine was administered orally in three doses (“colch×3” or “colchicine×3”). When three dosages of colchicine were administered, the first was given one hour after the administration of camptothecin (day 0), the second on day 1 and the third on day 2.

For experiment [4] the test system is unchanged. It is filed as in vivo, C3H mice. The method, then: as §1, §2, §3
Cisplatin (David Bull Laboratories—Mulgrave, Australia, lot. 5201844x) was made to the appropriate concentration in water for injection. Colchicine was given orally in a volume of 100 μl. Cisplatin was injected systemically (i.e., intraperitoneally, i.p.), in a volume of 100 μl. For the treatment of group 3, colchicine was given orally immediately prior to the intraperitoneal injection of cisplatin. The experimental compositions were prepared as described in Table 7.

The test system is the same in experiment [5]. The experiment is classed as in vivo, C3H mice. The method, then:
as §1, §2, §3
Etoposide (Sigma-Aldrich, lot. 46H078) was made to the appropriate concentration in DMSO. Etoposide and colchicine were injected systemically (i.e., intraperitoneally, i.p.), in a volume of 100 μl. The experimental compositions were prepared as described in Table 2.
The source holds these as a separate data set.

Experiment [6] has the same test system.
Source text: In each Example, the tumors were followed until they reached a size of four times their day zero treatment volume (TVQT), or up to 30 days after treatment, whichever came first. The data is expressed as the “tumor volume quadrupling time” (TVQT) mean and as the “delay.” Mean TVQT is the mean days required for individual tumors to grow to four times the tumor volume at the initial treatment day. […] The data is also expressed as the ratio of the tumor volume quadrupling time of the treated tumor over the untreated control group (TVQT/CTVQT). Increasing values of this ratio indicate increased antitumor response.
For experiment [7] the test system is unchanged. It is filed as in vivo, C3H mice. The method, then: as §1, §2, §3
Paclitaxel was obtained prediluted at 1 mg/ml in a cremaphor/ethanol solution. Colchicine was given at a dose of 2 mg/kg and paclitaxel was given, for each injection, at a dose of 10 mg/kg. For group 4, a total of three paclitaxel injections were given, one each on days 0, 3 and 5. The compositions were injected systemically (i.e., intraperitoneally, i.p.), in a volume of 100 μl.
This is another data set of the same source.

Setting [8] is: colchicine 10 mg/kg oral × 3 (days 0, 1, 2).
The mark [9] stands for this setting: colchicine 10 mg/kg oral, single dose.
Setting [10] is: colchicine 2 mg/kg i.p. (Table 11: 1 mg/kg).
The mark [11] stands for this setting: paclitaxel 10 mg/kg i.p., 3× (days 0, 3, 5).
Setting [12] is: paclitaxel 10 mg/kg i.p., given once.
Where [13] appears, read: vinblastine 1 mg/kg i.p., 3× (days 0, 3, 6).
Where [14] appears, read: vinblastine 1 mg/kg i.p., 4× (days 0, 3, 6, 8).

Structures are written as SMILES. Like-named read-outs stand apart in the source and are kept apart here.

As for `CN(C)CCN1C(=O)c2cccc3cc(N)cc(c23)C1=O` [Amonafide], in experiment [1] (amonafide IP 60 mg/kg), the “Days to 4× (ave ± SE)” value came out at 9.8 ± 0.6 days, the “Days to 4× Median” value was determined as 10.1 days, the “Delay” value was 2.55 days and the T/C is given as 1.3.

As for `CC[C@@]1(O)C(=O)OCc2c1cc1n(c2=O)Cc2cc3ccccc3nc2-1` [Camptothecin, camptothecin], in experiment [1] (camptothecin IP 3 mg/kg), the “Days to 4× (ave ± SE)” value was found to be 8.26 ± 0.46 days, the “Days to 4× Median” value is 8.27 days, the “Delay” value is listed as 0.71 days and the T/C was 1.1. Besides, in experiment [2] (camptothecin 6 mg/kg i.p.), the “Delay” value came out at 3.60 days, the “Mean TVQT ± S.E.” value is reported as 9.4 ± 0.5 days, the “Median (TVQT)” value is recorded as 9.9 days and the TVQT/CTVQT was 1.5. In experiment [3] (CPT 6 mg/kg IP), the “Days to 4× (Ave ± SE)” value came to 12.9 ± 0.5 days, the Delay is given as 5.45 days, the Median amounted to 12.8 days and the T/C stood at 1.7.

Regarding `N.N.[Cl][Pt][Cl]` [Cisplatin, cis-diamminedichloroplatinum II], in experiment [4] (cisplatin 4 mg/kg i.p.), the “Delay” value came to 1.45 days, the “Median (TGD)” value came out at 7.7 days, the “TGD ± S.E.” value amounted to 7.4 ± 0.3 days and the TGD/CTGD is reported as 1.2. Further, in experiment [1] (CDDP IP 4 mg/kg), the “Days to 4× (ave ± SE)” value worked out at 9.44 ± 0.42 days, the “Days to 4× Median” value is 9.22 days, the “Delay” value is listed as 1.66 days and the T/C was 1.2.

Regarding `COc1cc2c(c(OC)c1OC)-c1ccc(OC)c(=O)cc1[C@@H](NC(C)=O)CC2` [Colchicine, (S)-N-(5,6,7,9-tetrahydro-1,2,3,10-tetramethoxy-9-oxobenzo[a]heptalen-7-yl)acetamide], the “Effect of colchicine on the antiproliferative activity of cisplatin” value in experiment [4] (both compounds (group 4) versus cisplatin alone or colchicine alone) was “more than additive effect”. Moreover, in experiment [4] (colchicine 10 mg/kg oral), the “Delay” value was determined as 0.02 days, the “Median (TGD)” value came to 6.3 days, the “TGD ± S.E.” value stood at 6.4 ± 0.3 days and the TGD/CTGD came out at 1.0. Also, in experiment [2] (both compounds (group 4) versus camptothecin alone or colchicine alone), the “Effect of colchicine on the antiproliferative activity of camptothecin” value is recorded as “more than additive effect”. Further, in experiment [2] (colchicine 10 mg/kg oral), the “Delay” value turned out to be 0.02 days, the “Mean TVQT ± S.E.” value came to 6.4 ± 0.3 days, the “Median (TVQT)” value is listed as 6.3 days and the TVQT/CTVQT is on record as 1.0. Further, in experiment [3] (setting [8]), the “Days to 4× (Ave ± SE)” value turned out to be 7.2 ± 0.3 days, the Delay was -0.04 days, the Median was 7.3 days and the T/C amounted to 1.0. The “Tumor growth delay, three doses of colchicine compared to a single dose” value in experiment [3] (colchicine 10 mg/kg oral × 3 versus single dose) is given as “did not delay tumor growth significantly”. For the same molecule, in experiment [3] (setting [9]), the “Days to 4× (Ave ± SE)” value turned out to be 7.7 ± 0.4 days, the Delay came to 0.32 days, the Median worked out at 7.6 days and the T/C was found to be 1.0. Further, the “Effect of colchicine on the antiproliferative activity of etoposide” value in experiment [5] (both compounds (group 4) versus etoposide alone or colchicine alone) was “more than additive effect”. Further, in experiment [5] (colchicine 2 mg/kg i.p.), the “Delay” value was determined as 1.65 days, the “Mean TVQT ± S.E.” value is on record as 9.5 ± 0.2 days, the “Median (TVQT)” value stood at 9.3 days and the TVQT/CTVQT is recorded as 1.2. For the same molecule, in experiment [6] (colchicine 1 mg/kg i.p.), the “Delay” value is 1.15 days, the “Mean TVQT ± S.E.” value is listed as 7.2 ± 0.5 days, the “Median (TVQT)” value is given as 7.2 days and the TVQT/CTVQT turned out to be 1.1. Besides, in experiment [7] (setting [10]), the “Delay” value is 3.34 days, the “Mean TVQT ± S.E.” value came to 11.3 ± 0.6 days, the “Median (TVQT)” value worked out at 10.8 days and the TVQT/CTVQT is recorded as 1.5.

As to `COc1cc([C@@H]2c3cc4c(cc3[C@@H](O[C@@H]3O[C@@H]5CO[C@@H](C)O[C@H]5[C@H](O)[C@H]3O)[C@H]3COC(=O)[C@H]23)OCO4)cc(OC)c1O` [Etoposide], in experiment [5] (etoposide 10 mg/kg i.p.), the “Delay” value was -0.17 days, the “Mean TVQT ± S.E.” value worked out at 7.7 ± 0.5 days, the “Median (TVQT)” value is given as 7.5 days and the TVQT/CTVQT was determined as 1.0.

Turning to `CC(=O)O[C@H]1C(=O)[C@@]2(C)[C@H]([C@H](OC(=O)c3ccccc3)[C@]3(O)C[C@H](OC(=O)[C@H](O)[C@@H](NC(=O)c4ccccc4)c4ccccc4)C(C)=C1C3(C)C)[C@]1(OC(C)=O)CO[C@@H]1C[C@@H]2O` [Paclitaxel], the “Effectiveness of paclitaxel given 3 times versus once” value in experiment [7] (RIF-1 model, paclitaxel 10 mg/kg i.p.) is “slightly more effective”. Moreover, in experiment [7] (setting [11]), the “Delay” value is 1.59 days, the “Mean TVQT ± S.E.” value is given as 10.8 ± 1.9 days, the “Median (TVQT)” value is recorded as 9.0 days and the TVQT/CTVQT stood at 1.4. Further, in experiment [7] (setting [12]), the “Delay” value stood at 0.67 days, the “Mean TVQT ± S.E.” value is on record as 9.1 ± 0.7 days, the “Median (TVQT)” value is on record as 8.1 days and the TVQT/CTVQT is listed as 1.2.

Take `CC[C@]1(O)C[C@@H]2CN(CCc3c([nH]c4ccccc34)[C@@](C(=O)OC)(c3cc4c(cc3OC)N(C)[C@H]3[C@@](O)(C(=O)OC)[C@H](OC(C)=O)[C@]5(CC)C=CCN6CC[C@]43[C@@H]65)C2)C1` [Vinblastine]: the “Tumor growth delay curve when vinblastine was given after colchicine” value in experiment [6] (group 7: vinblastine days 0, 3, colchicine day 6, vinblastine day 8) is listed as “renewed sensitivity to vinblastine”. In experiment [6] (vinblastine 1 mg/kg i.p., 1×), the “Delay” value was 0.11 days, the “Mean TVQT ± S.E.” value turned out to be 6.6 ± 0.4 days, the “Median (TVQT)” value was 6.2 days and the TVQT/CTVQT is reported as 1.0. In addition, in experiment [6] (setting [13]), the “Mean TVQT ± S.E.” value turned out to be 8.9 ± 0.9 days, the “Median (TVQT)” value amounted to 7.8 days and the TVQT/CTVQT came out at 1.4. In experiment [6] (setting [14]), the “Mean TVQT ± S.E.” value is reported as 8.4 ± .06 days, the “Median (TVQT)” value stood at 8.6 days and the TVQT/CTVQT is on record as 1.2.

(Values after patent US20050170015A1 (priority 2000, published 2005).)
